Assay results published in ChEMBL document CHEMBL1130801, “PF1022A--a novel anthelmintic cyclooctadepsipeptide. Modification and exchange of the N-methyl leucine residues” (Bioorg Med Chem Lett, 1998).

Experiments:
[1] = Partition coefficient in n-octanol/ water system at pH= 7.0; type: physicochemical
Ovis aries [2] = assay: Anthelmintic activity against Haemonchus contortus nematode in sheep was determined as a function of 75 to >/= 90% egg reduction after p.o. administration; type: functional
Ovis aries [3] = assay: Anthelmintic activity against Haemonchus contortus nematode in sheep was determined as a function of 50-75% egg reduction after p.o. administration; type: functional
Ovis aries [4] = assay: Anthelmintic activity against Haemonchus contortus nematode in sheep was determined as a function of </= 50% egg reduction after i.v. administration; type: functional
Ovis aries [5] = assay: Anthelmintic activity against Haemonchus contortus nematode in sheep was determined as a function of </=50% egg reduction after p.o. administration; type: functional
Ovis aries [6] = assay: Anthelmintic activity against Haemonchus contortus nematode in sheep was determined as a function of >/= 90% egg reduction after i.v. administration; type: functional
Ovis aries [7] = assay: Anthelmintic activity against Haemonchus contortus nematode in sheep was determined as a function of 75-90% egg reduction after p.o. administration; type: functional
Ovis aries [8] = assay: Anthelmintic activity against Haemonchus contortus nematode in sheep was determined as a function of >/= 90% egg reduction after p.o. administration; type: functional

| logD [1] | Structure (SMILES) | Activity (Ovis aries [4]) | Activity (Ovis aries [6]) | also measured |
| --- | --- | --- | --- | --- |
| 7.2 | CCN1C(=O)[C@H](C)OC(=O)[C@H](CC(C)C)N(CC)C(=O)[C@@H](Cc2ccccc2)OC(=O)[C@H](CC(C)C)N(CC)C(=O)[C@@H](C)OC(=O)[C@H](CC(C)C)N(CC)C(=O)[C@@H](Cc2ccccc2)OC(=O)[C@@H]1CC(C)C | – | – | Activity (Ovis aries [2]): 0.25 |
| 8.4 | CCCN1C(=O)[C@H](C)OC(=O)[C@H](CC(C)C)N(CCC)C(=O)[C@@H](Cc2ccccc2)OC(=O)[C@H](CC(C)C)N(CCC)C(=O)[C@@H](C)OC(=O)[C@H](CC(C)C)N(CCC)C(=O)[C@@H](Cc2ccccc2)OC(=O)[C@@H]1CC(C)C | – | – | Activity (Ovis aries [3]): 0.25 |
| 3.1 | C[C@@H]1OC(=O)[C@H](C)N(C)C(=O)[C@@H](Cc2ccccc2)OC(=O)[C@H](C)N(C)C(=O)[C@@H](C)OC(=O)[C@H](C)N(C)C(=O)[C@@H](Cc2ccccc2)OC(=O)[C@H](C)N(C)C1=O | 0.5 | – | – |
| 6.6 | CCC(C)[C@H]1C(=O)O[C@H](Cc2ccccc2)C(=O)N(C)[C@@H](C(C)CC)C(=O)O[C@H](C)C(=O)N(C)[C@@H](C(C)CC)C(=O)O[C@H](Cc2ccccc2)C(=O)N(C)[C@@H](C(C)CC)C(=O)O[C@@H](C)C(=O)N1C (stereo partly specified) | – | 1 | Activity (Ovis aries [5]): 5 |
| 5.5 | CC(C)[C@H]1C(=O)O[C@H](Cc2ccccc2)C(=O)N(C)[C@@H](C(C)C)C(=O)O[C@H](C)C(=O)N(C)[C@@H](C(C)C)C(=O)O[C@H](Cc2ccccc2)C(=O)N(C)[C@@H](C(C)C)C(=O)O[C@@H](C)C(=O)N1C | – | 1 | Activity (Ovis aries [3]): 0.25 |
| 4.6 | CC(C)C[C@H]1C(=O)O[C@H](Cc2ccccc2)C(=O)N(C)[C@@H](C)C(=O)O[C@@H](C)C(=O)N(C)[C@@H](C)C(=O)O[C@H](Cc2ccccc2)C(=O)N(C)[C@@H](CC(C)C)C(=O)O[C@H](C)C(=O)N1C | 0.5 | – | – |
| 8.6 | CC(C)C[C@H]1C(=O)O[C@H](Cc2ccccc2)C(=O)N(C(C)C)[C@@H](CC(C)C)C(=O)O[C@H](C)C(=O)N(C(C)C)[C@@H](CC(C)C)C(=O)O[C@H](Cc2ccccc2)C(=O)N(C(C)C)[C@@H](CC(C)C)C(=O)O[C@@H](C)C(=O)N1C(C)C | – | – | Activity (Ovis aries [7]): 1 |
| 5.9 | C[C@@H]1OC(=O)[C@H](Cc2ccccc2)N(C)C(=O)[C@@H](Cc2ccccc2)OC(=O)[C@H](Cc2ccccc2)N(C)C(=O)[C@@H](C)OC(=O)[C@H](Cc2ccccc2)N(C)C(=O)[C@@H](Cc2ccccc2)OC(=O)[C@H](Cc2ccccc2)N(C)C1=O | 5 | – | – |
| 5.5 | CCC[C@H]1C(=O)O[C@H](Cc2ccccc2)C(=O)N(C)[C@@H](CC(C)C)C(=O)O[C@H](C)C(=O)N(C)[C@@H](CC(C)C)C(=O)O[C@H](Cc2ccccc2)C(=O)N(C)[C@@H](CCC)C(=O)O[C@@H](C)C(=O)N1C | – | 0.5 | Activity (Ovis aries [5]): 0.1 |
| 5.1 | CCC[C@H]1C(=O)O[C@H](Cc2ccccc2)C(=O)N(C)[C@@H](CCC)C(=O)O[C@H](C)C(=O)N(C)[C@@H](CCC)C(=O)O[C@H](Cc2ccccc2)C(=O)N(C)[C@@H](CCC)C(=O)O[C@@H](C)C(=O)N1C | 0.5 | – | – |

| Structure (SMILES) | logD [1] | Activity (Ovis aries [4]) | Activity (Ovis aries [6]) | also measured |
| --- | --- | --- | --- | --- |
| CC(C)C[C@H]1C(=O)O[C@H](Cc2ccccc2)C(=O)N(C)[C@@H](CC(C)C)C(=O)O[C@H](C)C(=O)N(C)[C@@H](CC(C)C)C(=O)O[C@H](Cc2ccccc2)C(=O)N(C)[C@@H](CC(C)C)C(=O)OC(C)C(=O)N1C (single isomer, unassigned) | 5.9 | – | 0.1 | Activity (Ovis aries [8]): 0.1 |
